{"source": "patent US20230241257A1", "about": "“BIOTIN-MODIFIED DIMER AND USE THEREOF” (THE UNIVERSITY OF TOKYO, priority 2020, published 2023)", "key": {"[1]": {"tested_on": "human stomach cancer cells (MKN-45)", "experiment": "Experiment 11: pharmacokinetics (6 h) of Cupid-scFv antibody (24 h before)+^211At-psyche-B in MKN-45 cancer-bearing mouse models", "assay_type": "in vivo, mice (BALB/cSlc nu/nu)", "details": "six hours after administration, tumor on Day 8 after transplantation", "experimental": "The present experiment used human stomach cancer cells (MKN-45) expressing carcinoembryonic antigen (CEA). 9-week-old male immunodeficient mice (BALB/cSlc nu/nu) were used. MKN-45 cells (1×10^7/0.1 ml) were transplanted into the mice's subcutis on the right shoulder dorsal side to produce cancer-bearing mouse models. When the tumor volume became a predetermined size (on Day 8 after the transplantation), the Cupid-scFv antibody was administered 100 μmol/0.1 ml via the caudal vein of each mouse. Twenty-four hours after administration of the Cupid-scFv antibody, ^211At-psyche-B (about 0.30 MBq/100 ml) was administered via the caudal vein of each mouse. […] After that, the weights of blood, plasma, urine, tumor, and normal tissues/organs were measured, and the radioactivity thereof was then measured using a γ counter. The amounts of the ^211At-psyche-B (radioactivity) accumulated in the blood, plasma, urine, tumor, and normal tissues/organs were calculated. […] Regarding accumulation of the ^211At-psyche-B in the thyroid gland, since the weight of the thyroid gland could not be precisely measured, it was shown that the rate (% ID) of the ^211At-psyche-B accumulated in the thyroid gland in the administered ^211At-psyche-B."}, "[2]": {"tested_on": "human stomach cancer cells (MKN-45)", "experiment": "Experiment 3: pharmacokinetics of Cupid-scFv antibody (48 h before)+^211At-psyche-B in MKN-45 cancer-bearing mouse models", "assay_type": "in vivo, mice (BALB/cSlc nu/nu)", "experimental": "The present experiment highly used CEA-expressing human stomach cancer cells (MKN-45). 9-week-old male immunodeficient mice (BALB/cSlc nu/nu) were used. MKN-45 cells (1×10^7/0.1 ml) were transplanted into the mice's subcutis on the right shoulder dorsal side to produce cancer-bearing mouse models. The mice were divided into four groups when the tumor volume became a predetermined size (on Day 12 after the transplantation). A Cupid-scFv antibody was administered in 100 μmol/0.1 ml via the caudal vein of each mouse. Forty-eight hours after administration of the Cupid-scFv antibody, ^211At-psyche-B (about 0.25 MBq/100 ml) was administered via the caudal vein of the mice. One minute, 1 hour, 6 hours, and 24 hours after administration of the ^211At-psyche-B, the mice were euthanized by collecting whole blood from the heart of each mouse under isoflurane anesthesia, and tumor tissues and normal tissues/organs were then excised. Normal tissues/organs: skin (lower right limb), muscle (right gastrocnemius muscle), heart, lung, spleen, pancreas, white fat (upper portion of right side testis), testis (both sides), stomach, stomach contents, small intestine (including contents), large intestine (including contents), liver, brown fat (interscapular), submandibular gland, thyroid gland (together with trachea), bone (right femur), cerebrum, eyeballs (both sides), bladder, and urine; the remaining residues were divided into three equal parts, and the three equal parts were defined to be residue-1, residue-2, and residue-3. After that, the weights of blood, plasma, urine, tumor, and normal tissues/organs were measured, and the radioactivity thereof was then measured using a γ counter. The amounts of the ^211At-psyche-B (radioactivity) accumulated in the blood, plasma, urine, tumor, and normal tissues/organs were calculated. That is to say, the rates (% ID/g) of the ^211At-psyche-B accumulated per unit weight (g) of the blood, plasma, urine, tumor, and normal tissues/organs, in the administered ^211At-psyche-B, were shown. Regarding accumulation of the ^211At-psyche-B in the thyroid gland, since the weight of the thyroid gland could not be precisely measured, it was shown that the rate (% ID) of the ^211At-psyche-B accumulated in the thyroid gland in the administered ^211At-psyche-B."}}, "data": [{"smiles": "N=C1N[C@H]2[C@H](CS[C@H]2CCCCC(=O)NCCCCCC(=O)Nc2cc(NC(=O)CCCCCNC(=O)CCCC[C@@H]3SC[C@@H]4NC(=N)N[C@@H]43)cc(C(=O)NCCOCCOCCNC(=O)c3cccc([211At])c3)c2)N1", "note": "[^211At-psyche-B]", "values": [{"measurement": "Accumulation in the tumor", "setting": "[1]", "value": "25.8±1.5", "unit": "% ID/g"}, {"measurement": "Accumulation in the kidney", "setting": "[2]; after 1 minute", "value": "62.3±9.8", "unit": "% ID/g"}, {"measurement": "Accumulation in the liver", "setting": "[2]; after 1 minute", "value": "41.4±6.2", "unit": "% ID/g"}, {"measurement": "Accumulation in the lung", "setting": "[2]; after 1 minute", "value": "10.2±1.6", "unit": "% ID/g"}, {"measurement": "Accumulation in the spleen", "setting": "[2]; after 1 minute", "value": "3.5±0.1", "unit": "% ID/g"}, {"measurement": "Accumulation in the tumor", "setting": "[2]; after 1 minute", "value": "0.5±0.1", "unit": "% ID/g"}, {"measurement": "Clearance from the blood", "setting": "[2]; after 1 minute", "value": "30.7±2.2", "unit": "% ID/g"}, {"measurement": "tumor-to-blood ratio", "setting": "[2]; after 1 minute", "value": "0.02±0.00"}, {"measurement": "tumor-to-muscle ratio", "setting": "[2]; after 1 minute", "value": "1.0±0.3"}, {"measurement": "Accumulation in the kidney", "setting": "[2]; after 1 hour", "value": "38.0±4.5", "unit": "% ID/g"}, {"measurement": "Accumulation in the liver", "setting": "[2]; after 1 hour", "value": "25.6±2.5", "unit": "% ID/g"}, {"measurement": "Accumulation in the lung", "setting": "[2]; after 1 hour", "value": "12.2±0.9", "unit": "% ID/g"}, {"measurement": "Accumulation in the spleen", "setting": "[2]; after 1 hour", "value": "8.5±0.6", "unit": "% ID/g"}, {"measurement": "Accumulation in the tumor", "setting": "[2]; after 1 hour", "value": "3.2±0.7", "unit": "% ID/g"}, {"measurement": "Clearance from the blood", "setting": "[2]; after 1 hour", "value": "30.8±5.5", "unit": "% ID/g"}, {"measurement": "tumor-to-blood ratio", "setting": "[2]; after 1 hour", "value": "0.11±0.02"}, {"measurement": "tumor-to-muscle ratio", "setting": "[2]; after 1 hour", "value": "4.7±0.4"}, {"measurement": "Accumulation in the kidney", "setting": "[2]; after 6 hours", "value": "14.9±0.8", "unit": "% ID/g"}, {"measurement": "Accumulation in the liver", "setting": "[2]; after 6 hours", "value": "23.6±2.3", "unit": "% ID/g"}, {"measurement": "Accumulation in the lung", "setting": "[2]; after 6 hours", "value": "8.5±0.9", "unit": "% ID/g"}, {"measurement": "Accumulation in the spleen", "setting": "[2]; after 6 hours", "value": "11.1±0.7", "unit": "% ID/g"}, {"measurement": "Accumulation in the tumor", "setting": "[2]; after 6 hours", "value": "9.9±2.9", "unit": "% ID/g"}, {"measurement": "Clearance from the blood", "setting": "[2]; after 6 hours", "value": "19.0±2.6", "unit": "% ID/g"}, {"measurement": "tumor-to-blood ratio", "setting": "[2]; after 6 hours", "value": "0.51±0.09"}, {"measurement": "tumor-to-muscle ratio", "setting": "[2]; after 6 hours", "value": "13.1±3.5"}, {"measurement": "Accumulation in the thyroid gland", "setting": "[2]; after 24 h", "value": "0.16±0.02", "unit": "% ID"}, {"measurement": "Accumulation in the kidney", "setting": "[2]; after 24 hours", "value": "6.6±0.2", "unit": "%"}, {"measurement": "Accumulation in the liver", "setting": "[2]; after 24 hours", "value": "19.3±0.6", "unit": "%"}, {"measurement": "Accumulation in the lung", "setting": "[2]; after 24 hours", "value": "3.5±0.2", "unit": "%"}, {"measurement": "Accumulation in the spleen", "setting": "[2]; after 24 hours", "value": "10.2±1.6", "unit": "%"}, {"measurement": "Accumulation in the tumor", "setting": "[2]; after 24 hours", "value": "11.3±3.3", "unit": "%"}, {"measurement": "Clearance from the blood", "setting": "[2]; after 24 hours", "value": "2.6±0.5", "unit": "% ID/g"}, {"measurement": "tumor-to-blood ratio", "setting": "[2]; after 24 hours", "value": "4.38±0.85"}, {"measurement": "tumor-to-muscle ratio", "setting": "[2]; after 24 hours", "value": "23.2±7.2"}]}]}
